Where no end group is shown, it is not given here.
Assays:
[1] = test system: Tc-HST-2 cells with HST-2 cells expressing HLA-A31 antigen as target cells; assay: CTL assay using a TNF-releasing method (Wehi164/MTT); format: cell-based, human; conditions: peptide final concentration 10 μM, 1 μM or 0.1 μM; HST-2 target cells; target cells to CTL 1:100; 12 hours
Protocol: That is, in the TNF-releasing method, the HLA-A31-positive HST-2 or KG-1 cell is mixed with the peptide of the present invention, and the mixture is incubated at 37° C. for 3 hours. Then, Tc-HST-2 cells are added thereto, and the resulting mixture is further incubated for 12 hours. The activity of any TNF released in the supernatant is measured to detect the CTL inducibility.
The TNF activity can be measured by the method described in Immunogenetics, vol. 35, p. 145 (1992).
That is, TNF-sensitive Wehi164 cells are mixed with a test sample, and the mixture is incubated for 24 hours. Then, an MTT [3-(4,5-dimethylthiazol-2-yl)-2,5-diphenyl tetrazolium bromide] solution is added to the culture, and the resulting mixture is further incubated for 3 hours. After any formazan converted within mitochondria is dissolved in acid propanol, the amount thereof is measured in terms of an absorbance at OD570 to detect the TNF activity.
That is, 1×10^4 HST-2 cells expressing HLA-A31 antigen were suspended as target cells in 100 μl of the solution, and 5 μl of each of the above-mentioned four synthetic peptides were added thereto such that the final concentration reached 10 μM, 1 μM or 0.1 μM. The mixture was further incubated under the same conditions for 3 hours to bind the HLA-bound peptide to the HLA molecule. Subsequently, Tc-HST-2 cells (1×10^6 cells/ml) were added thereto in an amount of 100 μl, and the resulting mixture was further incubated for 12 hours under the same conditions.
After 12 hours of incubation, 30 μl of the supernatant formed was collected, and the TNF activity released in the supernatant was measured to detect the CTL inducibility. The TNF activity was measured by the following method.
That is, 7×10^4 Wehi164 cells which are TNF-sensitive cells were suspended in 120 μl of the solution, and 30 μl of the above-obtained supernatant were added thereto. The mixture was incubated for 24 hours. […] Then, the absorbance was measured at a wavelength of 570 nm to measure the TNF activity.

[2] = test system: Tc-HST-2 cells with HST-2 or KG-1 cells expressing HLA-A31 antigen as target cells; assay: CTL inducibility by the 51Cr-releasing method (specific cytotoxicity of Tc-HST-2); format: cell-based, human; conditions: HLA-bound peptide from HST-2 separated by reversed-phase HPLC; target cells to CTL 1:100; 12 hours incubation
Protocol: That is, HLA-A31-positive HST-2 or KG-1 cells are radio-labeled with sodium chromate containing ^51Cr, and are then mixed with the HLA-bound peptide separated through reversed phase chromatography. The mixture is incubated at 37° C. for 3 hours, and Tc-HST-2 is then added thereto. The resulting mixture is further incubated for 12 hours. The CTL inducibility can be detected by measuring the radio-activity of ^51Cr released in the supernatant.
The CTL inducibility of the HPLC elution fractions against Tc-HST-2 cells was measured as follows. […]
Subsequently, Tc-HST-2 cells (2.5×10^5 cells/ml) were added thereto in an amount of 100 μl, and the mixture was incubated under the same conditions for 12 hours. After 12 hours of incubation, 100 μl of the supernatant formed were collected, and the radioactivity of ^51Cr released in this supernatant was measured using a γ-counter to measure the CTL activity.
The specific cytotoxicity was calculated using the following formula. […]
wherein the minimum release value indicates a measured value of a well filled with target cells alone and a value of ^51Cr naturally released from target cells, and the maximum release value indicates a release value when the cells are destroyed by adding a surfactant, 1% Triton x-100, to target cells.

| Substance | CTL inducibility of Tc-HST-2 (TNF activity released in the supernatant) [1] | CTL inducibility of Tc-HST-2 (specific cytotoxicity, 51Cr release) [2] |
| --- | --- | --- |
| Peptide 1-7: peptide containing 7 amino acids starting from the N-terminus of Synthetic Peptide 1 (SEQ ID NO: 4) (YSWMDIS) | no CTL inducibility | – |
| YSWMDISC [Peptide 1-8] | no CTL inducibility | – |
| YSWMDISCW [Peptide 1-9] | CTL inducibility of TC-HST-2 was identified | – |
| YSWMDISCWI [Peptide 1, Tyr Ser Trp Met Asp Ile Ser cys Trp Ile] | – | exhibiting the CTL inducibility |
